Source: patent US20140256656A1, “D-MANNOSE CONTRACEPTIVES” (Bio-Tech Pharmacal, Inc., priority 2002, published 2014)

What was measured:
[1] = tested on: bacteria; conditions: as described in the referenced earlier patents and applications of Dale Benedict; cited from earlier work
[2] = tested on: sperm adhering or attaching to the egg; assay: Equine-field observation of conception after D-Mannose; type: in vivo; conditions: D-Mannose in sufficient quantities at the appropriate times
Source text: In the equine field, Mr. […] Accordingly, the invention finds application in all fields of mammal animal husbandry to prevent unwanted cross-breeding, and to also prevent unwanted unproductive periods that are caused by undesired breeding.

SMILES: O=C[C@@H](O)[C@@H](O)[C@H](O)[C@H](O)CO [D-Mannose]
- adherence of bacteria to membranes or cell walls [1]: inhibits the adherence of bacteria to membranes or cell walls
- likelihood of conception [2]: reduces the likelihood of conception
